≈ marks a conversion by molar mass, not a printed value.
How the values were obtained:
Assay type in all cases: functional
Staphylococcus aureus [1] = test: Antimicrobial activity against Staphylococcus aureus DSM 1104 after 48 hr by two-fold serial broth dilution method; settings: DSM 1104, 48 h
Staphylococcus aureus [2] = test: Antimicrobial activity against Staphylococcus aureus DSM 1104 after 48 hr by two-fold serial broth dilution method relative to ampicillin
Escherichia coli = test: Antimicrobial activity against Escherichia coli ATCC 11775 after 48 hr by two-fold serial broth dilution method; settings: ATCC 11775, 48 h
Bacillus subtilis = test: Antimicrobial activity against Bacillus subtilis ATCC 6633 after 48 hr by two-fold serial broth dilution method; settings: ATCC 6633, 48 h
Pseudomonas aeruginosa [3] = test: Antimicrobial activity against Pseudomonas aeruginosa ATCC 10145 after 48 hr by two-fold serial broth dilution method; settings: ATCC 10145, 48 h
Candida albicans [4] = test: Antimicrobial activity against Candida albicans DSM 70014 after 48 hr by two-fold serial broth dilution method relative to clotrimazole
Candida albicans [5] = test: Antimicrobial activity against Candida albicans DSM 70014 after 48 hr by two-fold serial broth dilution method; settings: DSM 70014, 48 h
HOP-92 = test: Growth inhibition of Homo sapiens (human) HOP92 cells at 10 uM after 48 hr by SRB assay; settings: HOP-92, 48 h, read-out: GI
Pseudomonas aeruginosa [6] = test: Ratio of ampicillin MIC to compound MIC for Pseudomonas aeruginosa ATCC 10145 after 48 hr by two-fold serial broth dilution method

MIC (Staphylococcus aureus [1])	MIC (Escherichia coli)	MIC (Bacillus subtilis)	MIC (Pseudomonas aeruginosa [3])	MIC (Candida albicans [5])	SMILES	MBC (Staphylococcus aureus [1])	Activity (Staphylococcus aureus [2])	MBC (Escherichia coli)	MBC (Bacillus subtilis)	MBC (Pseudomonas aeruginosa [3])	Activity (Candida albicans [4])	MFC (Candida albicans [5])	inhibition of growth at 10 µM (HOP-92)	Ratio (Pseudomonas aeruginosa [6])
12.5 µg/mL (≈ 24.8 µM)	25 µg/mL (≈ 49.6 µM)	25 µg/mL (≈ 49.6 µM)	50 µg/mL (≈ 99.3 µM)	12.5 µg/mL (≈ 24.8 µM)	COc1ccc(OC)c(/C=C/c2nnc(SCC(=O)c3cc(O)ccc3O)n2-c2ccc(C)cc2)c1	25 µg/mL (≈ 49.6 µM)	40%	50 µg/mL (≈ 99.3 µM)	50 µg/mL (≈ 99.3 µM)	50 µg/mL (≈ 99.3 µM)	40%	25 µg/mL (≈ 49.6 µM)		
25 µg/mL (≈ 77.3 µM)	50 µg/mL (≈ 155 µM)	12.5 µg/mL (≈ 38.7 µM)	12.5 µg/mL (≈ 38.7 µM)	50 µg/mL (≈ 155 µM)	COc1ccc(OC)c(/C=C/c2nnc(Nc3ccccc3)o2)c1	50 µg/mL (≈ 155 µM)		50 µg/mL (≈ 155 µM)	25 µg/mL (≈ 77.3 µM)	25 µg/mL (≈ 77.3 µM)		50 µg/mL (≈ 155 µM)	37.5%	4
